From patent US20160168724A1, “POLYVINYLBUTYRAL COATING CONTAINING THIOL CORROSION INHIBITORS” (The Boeing Company, priority 2014, published 2016)

Experiment: Linear sweep voltammetry with rotating disc electrode, inhibitors in electrolyte solution
Conditions: for Current (A) @ −800 mV: 10 ppm inhibitor solution in 5% NaCl-PBS pH 7, copper rotating disc electrode 1000 rpm, LSV; for IE (inhibitor efficiency, Equation 1): 10 ppm inhibitor solution, from current at -800 mV versus blank
Protocol: Linear sweep voltammetry (LSV) and chronoamperometry were used to evaluate the performance of the thio-containing corrosion inhibitors as electroactive cathodic-thio compounds. The LSV experiments were performed with a rotating disc electrode (RDE). The rotating disc electrode technique provides certain benefits in measurement sensitivity because the technique indicates current at steady state with a kinetic flow over the electrode rather than a static measurement in solution (FIG. 1).
Inhibitor performance was measured based on the ability of the compound to prevent the oxygen reduction reaction in electrolyte using a rotating disc electrode. If current values were closer to zero then the inhibitor was considered to be appropriate because the oxygen reduction reaction, which is an indication of corrosion, was sequestered or stopped. Solutions of known concentration (e.g., containing 10 ppm inhibitor) were used to compared inhibitors. Inhibitor efficiency (IE), is calculated using Equation 1 (IE corrects for contributions not attributable to the inhibitor (e.g., electrolyte)).
Inhibitor Efficiency=(iinhibitor−iblank)/iblank (Equation 1)
Performance of different inhibitors (10 ppm solutions) was evaluated by measuring current value (A) at −800 mV and determining inhibitor efficiency, the results of which are shown in Table 5.
A 5% (wt/wt) sodium chloride solution (that is, electrolyte system A of Table 7) was selected to simulate a highly corrosive environment and potentially accelerate the corrosion. The electrolyte was buffered to eliminate changes in pH from effecting inhibitor performance measurements. A pH of 7 was selected because it was similar to seawater.
The 5% (wt/wt) (0.9 M) sodium chloride electrolyte solution was generated by adding reagent grade sodium chloride to <18 M·cm resistivity to deionized water (52.6 gm NaCl to 1 liter water). The solution was then buffered to neutral pH 7 with phosphate buffered saline tablets from Sigma Aldrich-(P4417-100TAB), 1 tablet per 200 ml of solution Inhibitors were dissolved in an 5% sodium chloride electrolyte buffered with phosphate buffered saline to maintain the pH at 7. Ten parts per million (10 ppm) solutions were generated by taking an aliquot of solutions with a higher known inhibitor concentration and diluting to make a 10 ppm solution. In most cases the higher concentration target was 50 ppm. The initial solutions were generated by adding 0.050 gm of inhibitor in a 5% NaCl buffered electrolyte in a one liter volumetric flask. Not all of the inhibitor dissolved, so the solution was filtered to calculate the solubility and the actual concentration. The solutions were stirred overnight with a stir bar and then filtered using a pre-weighed, 4.7 cm diameter, 1.0 micron pore size glass fiber filters (Whatman Grade GF/B 1821-047) and a Millipore glass filter funnel. The glass filter and clamp funnel was an improvement to previous filter methods that utilized a Buchner funnel and paper filters. After the filtrate was collected, the funnel and filter paper were rinsed thoroughly with deionized water to ensure that no electrolyte salts were trapped in the filter and that residual solids on the sides of the filter funnel were collected. The filter with solids was dried over night in an approximately 120° C. oven, allowed to come to room temperature in a desiccator, and weighed. The actual solution concentration was calculated based on the actual inhibitor dissolved. Concentration calculations also accounted for residual salts that are sometimes still present in the filter. These were measured by running a blank. An aliquot was taken of the 50 ppm solution and a final 10 ppm solution generated. […]

Compound | Current (A) @ −800 mV | IE (inhibitor efficiency, Equation 1)
Sc1nsc(S)n1 [1,2,4 DMcT, 1,2,4-Thiadiazole-3,5-dithiol] | −1.53 × 10^−4 A | 0.70
Sc1nnc([S][Al]([S]c2nnc(S)s2)[S]c2nnc(S)s2)s1 [1:3AlDMcT (acid), [Al:2,5-dimercapto-1,3,4-thiadiazole (1:3)] (acid)] | −2.83 × 10^−4 A | 0.44
Sc1nnc([S][Al]([S]c2nnc(S)s2)[S]c2nnc(S)s2)s1 [1:3AlDMcT, [Al:2,5-dimercapto-1,3,4-thiadiazole (1:3)]] | −2.25 × 10^−4 A | 0.55
N1=C2SSc3nnc(s3)SSC(=N1)S2 [BDTD, Bis-[2,5-dithio-1,3,4-thiadiazole]] | −3.00 × 10^−4 A | 0.40
Sc1nnc(SSc2nnc(S)s2)s1 [Vanlube 829, 5,5′-Dithiobis(1,3,4-Thiadiazole-2(3H)-thione)] | −2.68 × 10^−4 A | 0.47
[Al:2,5-dimercapto-1,3,4-thiadiazole (3:1)] [3:1 AlDMcT] | −2.59 × 10^−4 A | 0.49
